Measured values from patent US8765707B2, “MicroRNA-140-5p as a tumor suppressor and sensitizing agent for chemotherapy” (University of Houston System, priority 2011, dated 2014).
Entries after “also recorded” stand apart in the source; their conditions may differ.

Assays:
MYCN = MYCN induction in conditional MYCN3 cell line (QPCR); format: cell-based; details: 1 ug/ml doxorubicin
Method: In FIG. 1 using a conditional MYCN cells line MYCN3, neuroblastoma patients with high and low MYCN were simulated. […] Induced MYCN is functional as shown by alteration in cell cycle distribution 24 hours after exposure to doxorubicin. Chip-PCR results for E-boxes of two known MYCN target genes MIR17HG and MDM2 confirming the specificity of the immunoprecipitation and relative enrichment for MYCN target gene promoters.

[1] = tested on: CHLA255 neuroblastoma cell line; test: MTT proliferation assay in CHLA255 neuroblastoma cells; format: cell-based; details: CHLA255 stable cell line expressing microRNA with GFP, compared to control cells
Method: (§1) […] sequences (SEQ ID NOS: 3-4), which mimic miR-140-5p wildtype (SEQ ID NO: 1) and mutant miR-140-5p (SEQ ID NO: 2), were transfected into CHLA255 neuroblastoma cell line upper-GFP vector. Table 1 identifies the nucleotide sequences of the wildtype and mutant microRNAs and their mimics. The altered nucleotides in the mutant sequences are shown in bold.
(§2) The impact of these sequences on these cells was measured by increase in absorbance from the MTT assay (FIG. 2A) and the ability to form colonies on a soft agar plate in a clonogenicity assay (FIG. 2B). Stable cell line expression of microRNAs with GFP were compared to control cells. […] Colony formation assays were carried out in soft agar-representative wells showing colony growth at 10 days. Colonies were stained and counted by eye or by digital image analysis software.

[2] = tested on: CHLA255 neuroblastoma cell line; test: Soft agar colony formation (clonogenicity) assay; format: cell-based; details: CHLA255, colony growth at 10 days, triplicate experiments
Method: as §1, §2

[3] = tested on: CHLA-255 neuroblastoma tumors; test: In vivo orthotopic xenograft model of neuroblastoma; design: species or system mouse; details: tumors over-expressing miR-140-5p vs control CHLA-255; Kruskal-Wallis p<0.01; n=9
Source text: FIG. 3 illustrates the impact of miR-140-5p on in vivo orthotopic xenograft model of neuroblastoma. *Kruskal-Wallis method p<0.01; mean±SEM; n=9 in miR-140-5p cohort, n=10 in all other cohorts. Using the contralateral kidney (*) for comparison the average tumor weight for each cohort+SEM.

Compound: COc1cccc2c1C(=O)c1c(O)c3c(c(O)c1C2=O)C[C@@](O)(C(=O)CO)C[C@@H]3O[C@H]1C[C@H](N)[C@H](O)[C@H](C)O1 [doxorubicin]
- Increase in MYCN mRNA message level (MYCN): 20 fold

Compound: miR-140-5p: SEQ ID NO: 1, CAGUGGUUUUACCCUAUGGUAG (listed as RNA, chemistry not given here)
- Proliferation as measured by increase in absorbance from MTT assay [1]: consistently decrease the proliferation rates; also recorded: significantly decreases the proliferation
- Colony counts in soft agar [2]: significantly decrease colonies
- Average tumor weight [3]: significantly smaller than control; also recorded: significantly suppresses in vivo tumor growth and burden
